The values below come from US7659284B2, “Thiazolopyridine kinase inhibitors” (Janssen Pharmaceutica NV, priority 2004, dated 2010).

Common to all, as to assay type: biochemical
One experiment concerns the target T1, EGFR (Homo sapiens, UniProt P00533).
T1 construct: started at nucleotide 2189 (corresponding to amino acid 667) and ended at the termination codon; made in house; host or cells: Sf9 insect cells (baculovirus)
As to the kind of experiment: EGFR Kinase Assay (GST-EGFR, 33P-ATP, Streptavidin Flashplate). To be noted: for IC50: GST-EGFR intracellular portion, 5 μM ATP; for inhibition at 2 µM: test concentration of 2 μM, read-out: EGFR percent inhibition. An excerpt: The EGFR kinase used was a fusion of Glutathione-S-Transferase (GST) and a PCR amplified intracellular portion of EGFR (NM_005228). The intracellular portion of EGFR started at nucleotide 2189 (corresponding to amino acid 667) and ended at the termination codon. The portion was PCR amplified with primers that added the lambda attB sequences to each end, recombined into an entry vector, then into a GST destination vector (as described in Gateway Technologies Manual by Invitrogen Corporation, Carlsbad, Calif.).
The destination vector was recombined in the DH10BAC strain of bacteria to produce a bacmid. The bacmid was transfected into Sf 9 cells and the supernatant containing the baculovirus was collected. The GSTEGFR protein was purified using large cultures of Sf 9 cells infected with stock virus. After an appropriate period of time, the cells were collected and lysed. The GSTEGFR was then purified from the lysate on Glutathione-Sepharose columns (as described by Amersham Biosciences, Buckinghamshire, United Kingdom).
The EGFR substrate was prepared by biotinylating polyGluTyr (128 mg) (Sigma, St. Louis, Mo.) in a 1×PBS buffer incubated together with a 12-fold molar excess of Sulfo-NHS-LC-Biotin on ice for at least 2 hrs. The free biotin was separated from the biotinylated polyGluTyr on a gel filtration column.
A mixture of a 10× kinase buffer (500 mM Tris at pH 8.0, 100 mM Magnesium Chloride and 1 mM Sodium Vanadate), DTT (1 mM final from 500 mM stock), ATP (5 μM final from 10 mM stock), biotinylated polyGluTyr (10 μg/μL stock), γ-^33P ATP (10 μCi/μL stock) and water was added to each well (90 μL/well) of a Streptavidin Flashplate (Perkin Elmer, Wellesley, Mass.).
Test compound in 100% DMSO (2 μL) was added to the appropriate wells. Diluted GSTEGFR (1:300 dilution in 50 mM Tris at pH 8.0 and 0.1% bovine serum albumin) (10 μL) was added to the wells to initiate the reactions.
The plates were incubated at 30° C. for 1 hr with shaking. The reacted contents were removed and the plates were sequentially washed three times with a 1×PBS stop buffer (300 μL without Magnesium and Calcium) and 100 mM EDTA. After the final wash, the same stop buffer (200 μL) was added to the wells. The plates were then sealed and read on the TopCount scintillation counter.
Test compounds were assayed in triplicate at 16 concentrations at half-log dilutions starting at 200 uM. A maximum and minimum signal for the assay was determined on each plate. The percent inhibition of a test compound was calculated accord to the formula
For a series of test concentrations, the IC50 was derived by graphing percent inhibition against the log of the concentrations tested for a given compound. For those compounds without an IC50, the percent inhibition results are shown at a test concentration of 2 μM.

The next experiment has as its target T2, HER-2 (Homo sapiens, UniProt P04626).
T2 construct: the nucleotides encoding amino acids 679 to 1255 of HER-2; HIS6 with thrombin site (N); purchased Proqinase (Freiburg, Germany)
Put plainly: HER-2 Kinase Assay. Conditions: GST-HER2 kinase, 1 μM ATP. The protocol:
The HER-2 kinase used was purified at Proqinase (Freiburg, Germany) from a construct that consisted of a fusion of GST (Glutathione-S-Transferase), HIS6-Thrombin and the nucleotides encoding amino acids 679 to 1255 of HER-2.
A mixture of a 10× kinase reaction buffer (600 mM Hepes at pH 7.5, 30 mM Magnesium Chloride, 0.03 mM Sodium Vanadate and 500 μg/mL PEG 20,000), DTT (1.2 mM final from a 10 mM stock), ATP (1 μM from a 10 mM stock), biotinylated polyGluTyr (1.5 ng/μL final from stock of 1 μg/μL prepared by Upstate Biotechnologies, Lake Placid, N.Y.), Manganese Chloride (3 mM final from a 1 M stock), γy-^33P-ATP (10 μCi/μL stock) and water (70 μL/well) was added to each well of a Streptavidin Flashplate (Cat. # SMP103, NEN, Boston, Mass.).
Test compound stock (1 μL) was added to the appropriate wells. Diluted GSTHER2 kinase (6.7 ng/μL diluted into 50 mM Tris-HCl at pH 8.0 and 0.1% bovine serum albumin) (30 μL) was added (total volume of 200 ng/well) to initiate the reactions.
The reaction plates were incubated at 30° C. for 1 hr. The reaction was terminated by aspirating the reaction mixture from the plate wells and washing the wells three times with a 1×PBS stop buffer (300 μL) and 100 mM EDTA. After the final wash, the same stop buffer (200 μL) was again added to the wells. The plates were then sealed and read on the TopCount scintillation counter.
The IC50 was derived according to the procedure described in Example 52. For those compounds without an IC50, the percent inhibition results are shown at a test concentration of 1 μM.

The target of the next experiment is T3, c-Src kinase (human) (Homo sapiens, UniProt P12931).
T3 construct: purchased Upstate Biotechnology, Lake Placid, N.Y
As to the kind of experiment: c-Src Kinase Assay. Conditions: for IC50: human c-Src, 5 μM ATP; for inhibition at 1.6 µM: test concentration (2) 1.6 μM, read-out: c-SRC percent inhibition. The protocol:
[…] a 10× kinase buffer (80 mM MOPS at pH 7.0, 2 mM EDTA and 100 mM Magnesium Chloride), ATP (5 μM final from a 10 mM stock), a Cdc2 peptide KVEKIGEGTYGVVYK (100 μM final from a 2.5 mM stock), γ-^33P ATP (10 μCi/μL stock) and water (20 μL/well) was added to each well of a Streptavidin Flashplate.
Test compound in 100% DMSO (0.5 μL) was added to the appropriate wells. Diluted c-Src kinase (human) (Upstate Biotechnology, Lake Placid, N.Y.) (diluted in a buffer consisting of 20 mM MOPS at pH 7.0, 1 mM EDTA, β-mercaptoethanol (0.1%), Brij-35 (0.01%), glycerol (5%), and 1 mg/mL bovine serum albumin) (2.5 μL) was added to the wells to initiate the reactions. The reaction plates were incubated at 30° C. for 40 min. The reaction was terminated by the addition of a 3% phosphoric acid solution (5 μL). The reaction product (10 μL) was spotted onto a P30 filtermat and washed for 5 minutes in phosphoric acid (75 mM). The wash sequence was repeated two more times, followed with one final wash in methanol. The plates were then dried, sealed and read on the TopCount scintillation counter after adding 30 μL scintillation fluid.
The percent inhibitions and IC50 values were derived according to the procedure described in Example 52. For those compounds without an IC50, the percent inhibition results are shown at a test concentration of ^(1)1 μM or ^(2)1.6 μM.

T3 sequence (P12931 whole entry): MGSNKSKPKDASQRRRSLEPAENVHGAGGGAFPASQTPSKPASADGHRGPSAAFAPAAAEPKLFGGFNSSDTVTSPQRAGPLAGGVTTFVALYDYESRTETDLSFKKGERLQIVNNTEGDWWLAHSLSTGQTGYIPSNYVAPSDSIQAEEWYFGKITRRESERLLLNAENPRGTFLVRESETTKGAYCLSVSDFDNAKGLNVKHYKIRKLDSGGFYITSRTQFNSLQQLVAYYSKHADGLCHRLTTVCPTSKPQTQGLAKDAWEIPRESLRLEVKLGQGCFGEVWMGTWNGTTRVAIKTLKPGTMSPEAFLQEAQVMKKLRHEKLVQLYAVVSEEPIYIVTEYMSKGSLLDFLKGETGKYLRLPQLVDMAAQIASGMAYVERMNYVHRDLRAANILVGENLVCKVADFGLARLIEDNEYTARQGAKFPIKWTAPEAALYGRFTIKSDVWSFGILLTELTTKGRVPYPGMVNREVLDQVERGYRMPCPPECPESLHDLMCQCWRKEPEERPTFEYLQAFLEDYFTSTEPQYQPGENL
T1 sequence (P00533 667-1210 limits assumed): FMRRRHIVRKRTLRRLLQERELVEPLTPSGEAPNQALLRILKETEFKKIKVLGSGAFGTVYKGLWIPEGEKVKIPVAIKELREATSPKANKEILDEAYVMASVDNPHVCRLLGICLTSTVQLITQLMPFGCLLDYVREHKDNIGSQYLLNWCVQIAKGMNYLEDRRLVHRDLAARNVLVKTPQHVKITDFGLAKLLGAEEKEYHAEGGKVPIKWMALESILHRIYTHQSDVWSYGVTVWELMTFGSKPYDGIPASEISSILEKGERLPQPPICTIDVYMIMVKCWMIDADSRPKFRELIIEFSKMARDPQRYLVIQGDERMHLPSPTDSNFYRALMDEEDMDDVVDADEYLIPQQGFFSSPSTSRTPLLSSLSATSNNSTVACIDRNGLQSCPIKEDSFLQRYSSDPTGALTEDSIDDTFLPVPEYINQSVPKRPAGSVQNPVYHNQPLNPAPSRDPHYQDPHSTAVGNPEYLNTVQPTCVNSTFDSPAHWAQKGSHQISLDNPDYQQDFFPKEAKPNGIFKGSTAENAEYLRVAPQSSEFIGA
T2 sequence (P04626 679-1255): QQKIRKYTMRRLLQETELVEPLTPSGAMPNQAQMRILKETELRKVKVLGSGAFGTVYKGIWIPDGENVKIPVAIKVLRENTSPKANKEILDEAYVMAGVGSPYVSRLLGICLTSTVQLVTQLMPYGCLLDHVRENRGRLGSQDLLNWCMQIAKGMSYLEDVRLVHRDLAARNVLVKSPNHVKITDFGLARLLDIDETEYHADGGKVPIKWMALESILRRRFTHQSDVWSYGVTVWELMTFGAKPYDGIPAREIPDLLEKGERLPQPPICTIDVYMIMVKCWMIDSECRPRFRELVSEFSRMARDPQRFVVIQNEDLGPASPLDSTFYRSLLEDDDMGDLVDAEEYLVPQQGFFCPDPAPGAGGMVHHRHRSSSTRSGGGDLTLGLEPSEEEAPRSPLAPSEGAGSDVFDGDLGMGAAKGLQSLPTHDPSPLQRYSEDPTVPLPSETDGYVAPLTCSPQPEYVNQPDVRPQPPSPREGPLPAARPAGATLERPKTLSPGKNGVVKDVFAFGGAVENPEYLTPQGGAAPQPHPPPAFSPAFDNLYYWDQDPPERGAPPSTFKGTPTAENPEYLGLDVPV

`C#Cc1cccc(Nc2c(C#N)cnc3nc(Nc4ccc(CN(C)C)cc4)sc23)c1` [Cpd 10, 2-(4-dimethylaminomethyl-phenylamino)-7-(3-ethynyl-phenylamino)thiazolo[4,5-b]pyridine-6-carbonitrile]: the half-maximal inhibitory concentration (IC50) against EGFR worked out at 56.5 nM; against HER-2, 10000 nM. For the compound `CN1CCCC(COc2ccc(Nc3nc4ncc(C#N)c(Nc5c(Cl)ccc6c5OCO6)c4s3)cc2)C1` (centres unmarked) [Cpd 40, 7-(5-chloro-benzo[1,3]dioxol-4-ylamino)-2-[4-(1-methyl-piperidin-3-ylmethoxy)-phenylamino]-thiazolo[4,5-b]pyridine-6-carbonitrile], the inhibition at 2 µM at EGFR amounted to 46%. The compound also came in with an IC50 against c-Src kinase (human) of 2390 nM. With `CN1CCCC(COc2ccc(Nc3nc4ncc(C#N)c(Sc5ccc(F)cc5Cl)c4s3)cc2)C1` (centres unmarked) [Cpd 39, 7-(2-chloro-4-fluoro-phenylsulfanyl)-2-[4-(1-methyl-piperidin-3-ylmethoxy)-phenylamino]-thiazolo[4,5-b]pyridine-6-carbonitrile], the concentration for half-maximal inhibition (IC50) against EGFR was 3260 nM; on c-Src kinase (human) it was above 100000 nM. For `CN1CCN(Cc2ccc(Nc3nc4ncc(C#N)c(Nc5c(Cl)ccc6c5OCO6)c4s3)cc2)CC1` [Cpd 46, 7-(5-chloro-benzo[1,3]dioxol-4-ylamino)-2-[4-(4-methyl-piperazin-1-ylmethyl)-phenylamino]-thiazolo[4,5-b]pyridine-6-carbonitrile], the IC50 at c-Src kinase (human) turned out to be 389 nM. At EGFR, `COc1ccc(Cl)c(Nc2c(C#N)cnc3nc(Nc4ccc(OCC5CCCN(C)C5)cc4)sc23)c1` (centres unmarked) [Cpd 35, 7-(2-chloro-5-methoxy-phenylamino)-2-[4-(1-methyl-piperidin-3-ylmethoxy)-phenylamino]-thiazolo[4,5-b]pyridine-6-carbonitrile] returned an IC50 of 461 nM. On c-Src kinase (human), the inhibition at 1.6 µM came to 11%. For the compound `COc1cc(Nc2nc3ncc(C#N)c(Nc4c(Cl)ccc5c4OCO5)c3s2)ccc1OCCN1CCOCC1` [Cpd 42, 7-(5-chloro-benzo[1,3]dioxol-4-ylamino)-2-[3-methoxy-4-(2-morpholin-4-yl-ethoxy)-phenylamino]-thiazolo[4,5-b]pyridine-6-carbonitrile], at EGFR, the inhibition at 2 µM was 18%. The IC50 on c-Src kinase (human) worked out at 1380 nM.

For the compound `N#Cc1cnc2nc(Nc3ccc(CN4CCCC4)cc3)sc2c1Nc1c(Cl)ccc2c1OCO2` [Cpd 45, 7-(5-chloro-benzo[1,3]dioxol-4-ylamino)-2-(4-pyrrolidin-1-ylmethyl-phenylamino)-thiazolo[4,5-b]pyridine-6-carbonitrile], the IC50 on c-Src kinase (human) amounted to 145 nM. `CN1CCCC(COc2ccc(Nc3nc4ncc(C#N)c(Oc5ccc(Cl)cc5Cl)c4s3)cc2)C1` (centres unmarked) [Cpd 36, 7-(2,4-dichloro-phenoxy)-2-[4-(1-methyl-piperidin-3-ylmethoxy)-phenylamino]-thiazolo[4,5-b]pyridine-6-carbonitrile] came in with an IC50 against EGFR of 8760 nM. Also, the inhibition at 1.6 µM on c-Src kinase (human) was determined as 4%. The like results for `CN1CCCC(COc2ccc(Nc3nc4ncc(C#N)c(Oc5cccc(OC(F)(F)F)c5)c4s3)cc2)C1` (centres unmarked) [Cpd 37, 2-[4-(1-methyl-piperidin-3-ylmethoxy)-phenylamino]-7-(3-trifluoromethoxy-phenoxy)-thiazolo[4,5-b]pyridine-6-carbonitrile] were, in that order, 7210 nM and 3%.

For the compound `N#Cc1cnc2nc(Nc3ccc(CN4CCCCC4)cc3)sc2c1Nc1c(Cl)ccc2c1OCO2` [Cpd 41, 7-(5-chloro-benzo[1,3]dioxol-4-ylamino)-2-(4-piperidin-1-ylmethyl-phenylamino)-thiazolo[4,5-b]pyridine-6-carbonitrile], the inhibition at 2 µM at EGFR was 44%. This compound also registered a half-inhibitory concentration (IC50) on c-Src kinase (human) of 79 nM. The matching figures for `N#Cc1cnc2nc(Nc3ccc(CNC[C@H]4CCCO4)cc3)sc2c1Nc1c(Cl)ccc2c1OCO2` [Cpd 44, 7-(5-chloro-benzo[1,3]dioxol-4-ylamino)-2-[4-({[(2R)-tetrahydro-furan-2-ylmethyl]-amino}-methyl)-phenylamino]-thiazolo[4,5-b]pyridine-6-carbonitrile]: 47% and 126 nM.

On EGFR, `CN1CCCC(COc2ccc(Nc3nc4ncc(C#N)c(Sc5cccc(Br)c5)c4s3)cc2)C1` (centres unmarked) [Cpd 38, 7-(3-bromo-phenylsulfanyl)-2-[4-(1-methyl-piperidin-3-ylmethoxy)-phenylamino]-thiazolo[4,5-b]pyridine-6-carbonitrile] displayed an IC50 of 2200 nM. Moreover, the inhibition at 1.6 µM on c-Src kinase (human) came to 4%.

Take `COc1cc(Nc2nc3ncc(C#N)c(Nc4c(Cl)ccc5c4OCO5)c3s2)ccc1OCC1CCCCO1` (centres unmarked) [Cpd 43, 7-(5-chloro-benzo[1,3]dioxol-4-ylamino)-2-[3-methoxy-4-(tetrahydro-pyran-2-ylmethoxy)-phenylamino]-thiazolo[4,5-b]pyridine-6-carbonitrile]: at EGFR, the inhibition at 2 µM was 4%. Also, the IC50 at c-Src kinase (human) was above 100000 nM. In the case of `N#Cc1cnc2nc(Nc3ccc(CN4CCCC4)cc3)sc2c1Nc1ccc(F)c(Cl)c1` [Cpd 17, 7-(3-chloro-4-fluoro-phenylamino)-2-(4-pyrrolidin-1-ylmethyl-phenylamino)-thiazolo[4,5-b]pyridine-6-carbonitrile], the results for the IC50 against EGFR and against HER-2 were 39.9 nM and 46000 nM, respectively.
